Data published in patent US9931347B2, “Pharmaceutical compound” (IOmet Pharma Ltd., priority 2013, dated 2018).

Columns and labels:
[1] = biological target: T1, IDO (SKOV3 human ovarian adenocarcinoma cells, IFN-γ induced) (Homo sapiens, UniProt P14902); assay: SKOV3 Kynurenine cell based assay; settings: IDO induced by 500 ng/ml IFN-γ, 500 μM L-tryptophan, 48 hours
T1 construct: IDO expression was induced in the SKOV3 cells by the addition of 500 ng/ml IFN-γ; endogenous in cells; host or cells: SKOV3 human ovarian adenocarcinoma cells, induced with IFN-γ
T1 sequence (P14902 whole entry): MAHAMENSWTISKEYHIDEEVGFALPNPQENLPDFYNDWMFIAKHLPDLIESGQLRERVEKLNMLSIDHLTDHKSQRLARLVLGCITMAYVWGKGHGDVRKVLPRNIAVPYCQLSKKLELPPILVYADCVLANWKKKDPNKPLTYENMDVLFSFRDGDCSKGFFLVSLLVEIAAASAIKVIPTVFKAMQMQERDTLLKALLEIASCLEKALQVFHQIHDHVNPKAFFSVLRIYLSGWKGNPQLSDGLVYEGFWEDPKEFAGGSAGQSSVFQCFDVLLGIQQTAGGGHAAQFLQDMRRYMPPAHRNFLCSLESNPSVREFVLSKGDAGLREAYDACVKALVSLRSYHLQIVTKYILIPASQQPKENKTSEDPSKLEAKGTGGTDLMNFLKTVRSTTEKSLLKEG
Summary of the method: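 Kynurenine in the supernatant, detected by Ehrlich's reagent, served as read-out after 48 h at 37° C with or without test compound. SKOV3 cells (40,000/well) were grown in phenol red-free RPMI, 10% FCS, 2 mM L-glutamine, 500 μM L-tryptophan, with 500 ng/ml IFN-γ to induce IDO.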

[2] = biological target: Recombinant human TDO (Homo sapiens, UniProt P48775); assay: hTDO biochemical coupled assay; settings: 330 μM L-tryptophan, coupled with kynurenine formamidase
Chain of Recombinant human TDO (P48775 whole entry): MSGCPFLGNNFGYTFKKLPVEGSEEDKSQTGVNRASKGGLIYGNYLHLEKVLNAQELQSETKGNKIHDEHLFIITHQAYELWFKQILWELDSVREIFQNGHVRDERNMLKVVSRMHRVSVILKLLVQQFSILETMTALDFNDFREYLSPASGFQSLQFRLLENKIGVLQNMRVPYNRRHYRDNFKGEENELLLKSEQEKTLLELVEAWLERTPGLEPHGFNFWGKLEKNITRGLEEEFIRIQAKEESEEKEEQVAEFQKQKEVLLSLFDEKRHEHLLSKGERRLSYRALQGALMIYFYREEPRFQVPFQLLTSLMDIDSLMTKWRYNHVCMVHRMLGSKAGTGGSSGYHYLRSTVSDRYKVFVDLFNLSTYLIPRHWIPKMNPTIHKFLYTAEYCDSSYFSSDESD
Protocol: Exemplary compounds of the invention were prepared, and tested to determine their effect as TDO and/or IDO inhibitors. Two different assays were employed: 1. a cell-based assay for detecting the effect of test compounds on kynurenine production in two different cancer cell types. This assay utilised cancer cells which expressed either TDO or IDO and as such was used as a means of testing compound activity at these two enzymes in a cell-based context. 2. a TDO and IDO biochemical coupled assay which utilised recombinantly produced and purified TDO and IDO enzymes in combination with the enzyme formamidase. This coupled enzyme system allowed conversion of N-formylkynurenine produced by TDO or IDO activity to kynurenine which was then quantified by fluorescence following addition of Erhlich's Reagent The protocols for these are set out below.
Recombinant human IDO or TDO was incubated in 50 mM KPO4 (pH 7.0), 0.5 mM EGTA, 0.5 mM EDTA, 0.05% Triton™ X100, 20 mM ascorbate, 10 μM methylene blue, 500 U/ml catalase, 50 μg/ml KynB (kynurenine formamidase). TDO assays were carried out in the presence of 330 μM L-tryptophan, while IDO assays had the addition of 45 μM L-tryptophan. After incubation for 17 minutes at room temperature the reactions were stopped by the addition of Erhlich's reagent and incubated at room temperature for 5 minutes before the fluorescence was read (Ex475, Em530).

[3] = biological target: Recombinant human IDO (Homo sapiens, UniProt P14902); assay: hIDO biochemical coupled assay; settings: 45 μM L-tryptophan, coupled with kynurenine formamidase
Chain of Recombinant human IDO (P14902 whole entry): as the sequence (P14902 whole entry) above
Summary of the method: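 Recombinant human IDO incubated in 50 mM KPO4 (pH 7.0), 0.5 mM EGTA, 0.5 mM EDTA, 0.05% Triton X100, 20 mM ascorbate, 10 μM methylene blue, 500 U/ml catalase and 50 μg/ml kynurenine formamidase. N-formylkynurenine converted to kynurenine, quantified by fluorescence after Ehrlich's reagent.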

[4] = biological target: T2, TDO (A172 human glioblastoma cells) (Homo sapiens, UniProt P48775); assay: A172 Kynurenine cell based assay; settings: 500 μM L-tryptophan, 48 hours, kynurenine by Erhlich's reagent
T2 construct: This assay utilised cancer cells which expressed either TDO or IDO; endogenous in cells; host or cells: A172 human glioblastoma cells
T2 sequence (P48775 whole entry): as the sequence (P48775 whole entry) above
Summary of the method: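 Kynurenine released into the supernatant was quantified by absorbance at 490 nm after 5 min with Erhlich's reagent. A172 cells were seeded at 30,000/well and exposed to test compound for 48 hours at 37° C. in phenol red-free RPMI containing 500 μM L-tryptophan, 10% FCS and 2 mM L-glutamine.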

SMILES	SKOV3 Kynurenine cell based assay pIC50 [1]	hTDO biochemical assay pIC50 [2]	hIDO biocehmical assay pIC50 [3]	A172 Kynurenine cell based assay pIC50 [4]
CS(=O)(=O)N1CCC(c2c[nH]c3ccncc23)CC1 [Compound 175]	+ (+ = pIC50 4.00-4.99)	+− (+− = pIC50 <4.00)	+− (+− = pIC50 <4.00)	+ (+ = pIC50 4.00-4.99)
O=S(=O)(c1ccccc1Br)N1CCC(c2c[nH]c3ccccc23)CC1 [Compound 21]	+ (+ = pIC50 4.00-4.99)	+− (+− = pIC50 <4.00)	+− (+− = pIC50 <4.00)	+ (+ = pIC50 4.00-4.99)
CC(=O)N1CCC(C2CNc3cc(F)ccc32)CC1 (centres unmarked) [Compound 179]	+− (+− = pIC50 <4.00)	+− (+− = pIC50 <4.00)	+− (+− = pIC50 <4.00)	+ (+ = pIC50 4.00-4.99)
CC(=O)N1CC=C(c2c[nH]c3ccc(Cl)cc23)CC1 [Compound 165]	+ (+ = pIC50 4.00-4.99)	+ (+ = pIC50 4.00-4.99)	+− (+− = pIC50 <4.00)	++ (++ = pIC50 5.00-5.99)
COc1cccc2c(C3=CCN(S(C)(=O)=O)CC3)c[nH]c12 [Compound 93]	+− (+− = pIC50 <4.00)	+ (+ = pIC50 4.00-4.99)	+− (+− = pIC50 <4.00)	+− (+− = pIC50 <4.00)
Cc1ccc2[nH]cc(C3CCN(S(=O)(=O)c4cccc(Cl)c4C)CC3)c2c1 [Compound 32]	+ (+ = pIC50 4.00-4.99)	+− (+− = pIC50 <4.00)	+− (+− = pIC50 <4.00)	+− (+− = pIC50 <4.00)
COc1ccc2[nH]cc(C3CCN(S(=O)(=O)c4ccc(Br)cc4OC(F)(F)F)CC3)c2c1 [Compound 30]	+ (+ = pIC50 4.00-4.99)	+− (+− = pIC50 <4.00)	+− (+− = pIC50 <4.00)	+− (+− = pIC50 <4.00)
O=S(=O)(c1cccs1)N1CC=C(c2c[nH]c3ncccc23)CC1 [Compound 13]	++ (++ = pIC50 5.00-5.99)	+− (+− = pIC50 <4.00)	+− (+− = pIC50 <4.00)	+− (+− = pIC50 <4.00)
CC(=O)N1CC=C(c2c[nH]c3ccc(F)cc23)CC1 [Compound 86]	+ (+ = pIC50 4.00-4.99)	+++ (+++ = pIC50 ≥6.00)	+− (+− = pIC50 <4.00)	++ (++ = pIC50 5.00-5.99)
Cc1ccc(S(=O)(=O)N2CCC(c3c[nH]c4ccccc34)CC2)cc1 [Compound 9]	+ (+ = pIC50 4.00-4.99)	+− (+− = pIC50 <4.00)	+− (+− = pIC50 <4.00)	+ (+ = pIC50 4.00-4.99)
O=S(=O)(C1CC1)N1CCC(c2c[nH]c3ccccc23)CC1 [Compound 75]	+− (+− = pIC50 <4.00)	+ (+ = pIC50 4.00-4.99)	+− (+− = pIC50 <4.00)	++ (++ = pIC50 5.00-5.99)
NS(=O)(=O)N1CC=C(c2c[nH]c3cc(F)ccc23)CC1 [Compound 164]	+− (+− = pIC50 <4.00)	+++ (+++ = pIC50 ≥6.00)	+− (+− = pIC50 <4.00)	+++ (+++ = pIC50 ≥6.00)
CCOC(=O)N1CCC(c2c[nH]c3ccccc23)CC1 [Compound 66]	+ (+ = pIC50 4.00-4.99)	+− (+− = pIC50 <4.00)	+− (+− = pIC50 <4.00)	+ (+ = pIC50 4.00-4.99)
COc1ccc2[nH]cc(C3CCN(C(=O)C(C)C)CC3)c2c1 [Compound 15]	+ (+ = pIC50 4.00-4.99)	+− (+− = pIC50 <4.00)	+− (+− = pIC50 <4.00)	+− (+− = pIC50 <4.00)
CCCS(=O)(=O)N1CCC(c2c[nH]c3ccccc23)CC1 [Compound 69]	+− (+− = pIC50 <4.00)	+ (+ = pIC50 4.00-4.99)	+− (+− = pIC50 <4.00)	++ (++ = pIC50 5.00-5.99)
Cc1ccc2[nH]cc(C3=CCN(S(C)(=O)=O)CC3)c2c1 [Compound 92]	+ (+ = pIC50 4.00-4.99)	+ (+ = pIC50 4.00-4.99)	+− (+− = pIC50 <4.00)	++ (++ = pIC50 5.00-5.99)
CS(=O)(=O)N1CCC(c2c[nH]c3cccc(F)c23)CC1 [Compound 95]	+− (+− = pIC50 <4.00)	+− (+− = pIC50 <4.00)	+− (+− = pIC50 <4.00)	+ (+ = pIC50 4.00-4.99)
O=S(=O)(c1cc(C(F)(F)F)ccc1C(F)(F)F)N1CCC(c2c[nH]c3ccc(F)cc23)CC1 [Compound 26]	+ (+ = pIC50 4.00-4.99)	+− (+− = pIC50 <4.00)	+− (+− = pIC50 <4.00)	+− (+− = pIC50 <4.00)
COCCS(=O)(=O)N1CCC(c2c[nH]c3ccccc23)CC1 [Compound 74]	+− (+− = pIC50 <4.00)	+ (+ = pIC50 4.00-4.99)	+− (+− = pIC50 <4.00)	++ (++ = pIC50 5.00-5.99)
O=C(Cc1cccs1)N1CCC(c2c[nH]c3ccccc23)CC1 [Compound 19]	+ (+ = pIC50 4.00-4.99)	+− (+− = pIC50 <4.00)	+− (+− = pIC50 <4.00)	+− (+− = pIC50 <4.00)
Cc1ccc2[nH]cc(C3CCN(S(=O)(=O)c4ccc(Br)cc4OC(F)(F)F)CC3)c2c1 [Compound 34]	+ (+ = pIC50 4.00-4.99)	+− (+− = pIC50 <4.00)	+− (+− = pIC50 <4.00)	+ (+ = pIC50 4.00-4.99)
CS(=O)(=O)N1CC=C(c2c[nH]c3c(F)cccc23)CC1 [Compound 100]	+− (+− = pIC50 <4.00)	+− (+− = pIC50 <4.00)	+− (+− = pIC50 <4.00)	+ (+ = pIC50 4.00-4.99)
CS(=O)(=O)N1CC=C(c2c[nH]c3cc(F)c(F)cc23)CC1 [Compound 168]	+ (+ = pIC50 4.00-4.99)	++ (++ = pIC50 5.00-5.99)	+− (+− = pIC50 <4.00)	+++ (+++ = pIC50 ≥6.00)
Cc1ccc2[nH]cc(C3CCN(S(=O)(=O)c4ccccc4OC(F)(F)F)CC3)c2c1 [Compound 36]	++ (++ = pIC50 5.00-5.99)	+− (+− = pIC50 <4.00)	+− (+− = pIC50 <4.00)	+ (+ = pIC50 4.00-4.99)
O=C(C1CC1)N1CCC(c2c[nH]c3ccccc23)CC1 [Compound 71]	+− (+− = pIC50 <4.00)	+− (+− = pIC50 <4.00)	+− (+− = pIC50 <4.00)	+ (+ = pIC50 4.00-4.99)
CC(=O)N1CC=C(c2c[nH]c3ccc(C)cc23)CC1 [Compound 89]	+ (+ = pIC50 4.00-4.99)	++ (++ = pIC50 5.00-5.99)	+− (+− = pIC50 <4.00)	+ (+ = pIC50 4.00-4.99)
